Patent publication US20210052608A1, “METHODS OF TREATING BACTERIAL INFECTIONS WITH MINOCYCLINE” (Melinta Therapeutics, Inc., priority 2018, published 2021)
“Also recorded” adds a separate entry of the source.

Key:
[1] = Plasma pharmacokinetics of minocycline, twice-daily ascending dose (MAD) phase, loading dose then BID dosing for 7 days; set-up: species or system human (healthy adult subjects); conditions: human, in vivo; for AUC(0-t): AUC0-t; for clearance: Cl (plasma clearance); for Vd: Vss (volume of distribution at steady state); for half-life: mean; for Cmax: iv
Experimental: (§1) This example describes outcomes among healthy adult subjects in a randomized, double-blind, placebo-controlled, single- and multiple ascending dose (SAD/MAD) study of 6 intravenous doses (cohorts) ranging from 100 mg to 600 mg of minocycline. […] Within each cohort, subjects received a single dose on Day 1, followed by a loading dose on Day 4, then 7 days of twice-daily dosing (Days 4-10), followed by a single dose on Day 11 as shown in Table 1. Within each cohort, subjects were randomly assigned to minocycline (n=8) or normal saline placebo (n=2). Serial blood and urine samples were collected for pharmacokinetic assessment. All infusions were administered over 1 hour. Plasma samples were obtained at 1 (end-of-infusion), 2, 4, 8, 12, 18, 24, 36, 48, and 72 hours after the start of dosing after single or multiple doses and assayed for minocycline content using a validated HPLC/MS method. Concentration of minocycline in healthy volunteers after a one hour IV infusion is shown in FIG. 1, while concentration of minocycline in healthy volunteers after a loading dose then twice daily dosing for seven days is shown in FIG. 2.

[2] = Plasma pharmacokinetics of minocycline, single ascending dose (SAD) phase, 1 hour intravenous infusion; set-up: species or system human (healthy adult subjects); conditions: human, in vivo; for half-life: mean, N=8
Experimental: as §1

[3] = Safety and tolerability (adverse events) in the SAD/MAD study of intravenous minocycline; type: in vivo, human (healthy adult subjects)
Experimental: This example describes outcomes among healthy adult subjects in a randomized, double-blind, placebo-controlled, single- and multiple ascending dose (SAD/MAD) study of 6 intravenous doses (cohorts) ranging from 100 mg to 600 mg of minocycline. Each cohort consisted of 10 subjects (8 active drug and 2 placebo). Within each cohort, subjects received a single dose on Day 1, followed by a loading dose on Day 4, then 7 days of twice-daily dosing (Days 4-10), followed by a single dose on Day 11 as shown in Table 1. Within each cohort, subjects were randomly assigned to minocycline (n=8) or normal saline placebo (n=2). Serial blood and urine samples were collected for pharmacokinetic assessment.
Safety was assessed throughout the study. Of the adverse events (AE) observed in more than 10% of subjects, the vast majority were assessed by the investigator as likely to be related to study drug (Table 5). A total of 21 subjects out of 57 discontinued the trial. Six of 10 subjects in cohort 4 discontinued during the MAD portion (400 mg BID) of the trial due to mild to moderate dizziness. Dosing was discontinued in the remaining 4 subjects in that cohort and cohorts 5 and 6 were limited to 300 mg BID for the MAD portion of the trial. Four subjects in cohort 6 (600 mg/300 mg) discontinued due to nausea.

[4] = Plasma pharmacokinetics of minocycline, single ascending dose (SAD) phase, 1 hour intravenous infusion; set-up: species or system human (healthy adult subjects); conditions: human, in vivo; single 600 mg IV dose, mean, N=9

Compound `CN(C)c1ccc(O)c2c1C[C@H]1C[C@H]3[C@H](N(C)C)C(O)=C(C(N)=O)C(=O)[C@@]3(O)C(O)=C1C2=O` [minocycline] has an AUC(0-t) ([1]; 100 mg) of 27500 ng·h/mL, a clearance ([1]; 100 mg) of 58.2 mL/min and a Vd ([1]; 100 mg) of 72 L. It also gave a half-life ([1]; 100 mg, single dose 100 mg, BID dosing 100 mg, N=6) of 15.9 h, an AUC(0-t) ([1]; 200 mg) of 80700 ng·h/mL and a clearance ([1]; 200 mg) of 41.3 mL/min. It also gave a Vd ([1]; 200 mg) of 58.4 L, a half-life ([1]; 200 mg, single dose 200 mg, BID dosing 200 mg, N=6) of 18.2 h and an AUC(0-t) ([1]; 300 mg) of 174000 ng·h/mL. For the same compound, the clearance ([1]; 300 mg) was 32 mL/min, the Vd ([1]; 300 mg) was 47 L and the half-life ([1]; 300 mg, single dose 300 mg, BID dosing 300 mg, N=7) was 19.8 h. The half-life ([1]; 300 mg, single dose 500 mg, BID dosing 300 mg, N=7) was 18.1 h, the half-life ([1]; 300 mg, single dose 600 mg, BID dosing 300 mg, N=4) was 20.2 h and the half-life ([1]; 300 mg, single dose 300, 500, or 600 mg (pooled), BID dosing 300 mg, N=18) was 19.2 h. For the same compound, the clearance [1] was 44 mL/min, the Vd [1] was 58.1 L and the Cmax ([1]; 100 mg) was 1710 ng/mL. For the same compound, the Cmax ([1]; 200 mg) was 4590 ng/mL, the Cmax ([1]; 300 mg) was 8910 ng/mL and the “Dose proportionality of exposure” value ([2]; iv) was “increased in a dose proportional fashion with exception of the 500 mg dose”. The AUC(0-inf) ([2]; iv, 100 mg) was 9730 ng·h/mL, the clearance ([2]; iv, 100 mg) was 175 mL/min and the AUC(0-inf) ([2]; iv, 200 mg) was 25900 ng·h/mL. For the same compound, the clearance ([2]; iv, 200 mg) was 137 mL/min, the AUC(0-inf) ([2]; iv, 300 mg) was 39200 ng·h/mL and the clearance ([2]; iv, 300 mg) was 138 mL/min. For the same compound, the AUC(0-inf) ([2]; iv, 400 mg) was 63600 ng·h/mL, the clearance ([2]; iv, 400 mg) was 112 mL/min and the AUC(0-inf) ([2]; iv, 500 mg) was 53800 ng·h/mL. For the same compound, the clearance ([2]; iv, 500 mg) was 171 mL/min, the AUC(0-inf) ([2]; iv, 600 mg) was 83000 ng·h/mL and the clearance ([2]; iv, 600 mg) was 135 mL/min. It also gave a half-life ([2]; single 100 mg IV dose) of 11.1 h, a half-life ([2]; single 200 mg IV dose) of 13.7 h and a half-life ([2]; single 300 mg IV dose) of 16.6 h. For the same compound, the half-life ([2]; single 400 mg IV dose) was 17.6 h, the half-life ([2]; single 500 mg IV dose) was 14.4 h and the Maximum tolerated multi-dose ([3]; administered twice daily, IV) was 300 mg. The “Subjects discontinued due to nausea in cohort 6” value ([3]; cohort 6 (600 mg/300 mg)) was “Four”, the “Subjects reporting study drug related adverse events, %” value ([3]; human, in vivo) was 79.9% and the “Subjects who discontinued the trial, total” value ([3]; human, in vivo) was 21. For the same compound, the “Subjects with dizziness, %” value ([3]; human, in vivo) was 59.4%, the “Subjects with dizziness, number” value ([3]; human, in vivo) was 41 and the “Subjects with moderate nausea and/or dizziness, number” value ([3]; human, in vivo) was 9. The “Subjects with nausea, %” value ([3]; human, in vivo) was 50.7%, the “Subjects with nausea, number” value ([3]; human, in vivo) was 35 and the “Subjects discontinued from study drug in the 400 mg cohort (cohort 4)” value ([3]; human, in vivo, 7 days) was 6. The “Tolerability of single intravenous doses” value ([3]; single IV doses up to 600 mg) was “tolerated reasonably well”, the Serious adverse events ([3]; whole SAD/MAD study, 100 mg to 600 mg IV) was “No serious adverse events occurred; also recorded: No serious adverse events (SAEs) were reported” and the “Most common adverse effects” value ([3]; whole study) was “mild nausea and dizziness”. The half-life [4] was 17.3 h.
